The target of assay [1] is Nav1.3 (Homo sapiens, UniProt Q9NY46). The format is cell-based.
Assay [2] relates to IMR-32 cells grown in the presence of RA (fast transient inward currents). Kind of assay: Whole cell voltage clamp of inward currents, IMR-32 cells grown in RA. It is filed as cell-based, human. As for the experimental part:
The endogenous voltage gated Na currents expressed in IMR-32 cells grown in the presence or absence of 1 μM RA were measured using standard whole cell voltage clamp techniques (Hamill et al. (1981). The whole cell patch clamp technique was used to record voltage-activated currents from IMR-32 cells maintained for two or more days on 12 mm glass coverslips in the presence or absence of RA (1 μM). Cells were visualized using a Nikon Diaphot 300 with DIC Nomarski optics. The standard physiological saline (1 Ca tyrodes (“Tyrodes”) contains: 130 mM NaCl, 4 mM KCl, 1 mM CaCl2, 1.2 mM MgCl2, and 10 mM hemi-Na-HEPES (pH 7.3, 295–300 mOsm as measured using a Wescor 5500 vapor-pressure (Wescor, Inc., Logan, Utah)). Recording electrodes are fabricated from borosilicate capillary tubing (R6; Garner Glass, Claremont, Calif.), the tips are coated with dental periphery wax (Miles Laboratories, South Bend, Ind.), and have resistances of 1 to 2 MΩ when containing an intracellular saline designed to block outward currents: 140 mM CsCl, 0.483 mM CaCl2, 2 mM MgCl2, 10 mM HEPES free acid and 1 mM K4-BAPTA (100 nM free Ca^+2); pH 7.4, with dextrose added to achieve 290 mOsm). Current and voltage signals are detected and filtered at 2 kHz with an Axopatch 1D patch-clamp amplifier (Axon Instruments, Foster City, Calif.), digitally recorded with a DigiData 1200B laboratory interface (Axon Instruments) and PC compatible computer system and stored on magnetic disk for off-line analysis. Data acquisition and analysis are performed with PClamp software.
The total membrane capacitance (Cm) was determined as the difference between the maximum current after a 30 mV hyperpolarizing voltage ramp from −100 mV (generated at a rate of 10 mV/ms) and the steady state current at the final potential (−130 mV) (Dubin et al. (1999)).
Families of voltage-gated inward currents were obtained using a standard P/−4 protocol from −100 mV. Depolarizing voltage steps in increments of 10 mV were applied from a holding potential of −100 mV. Steady state inactivation was elicited by measuring the peak current at 0 mV after a 500 msec pre-pulse voltage between −140 and −20 mV in increments of 10 mV.

The subject of assay [3] is IMR-32 cells grown in the absence of RA (inward currents). The format is cell-based, human.
Assay [4] concerns Nav. It is filed as cell-based, human.
The target of assay [5] is Nav1.7 (Homo sapiens, UniProt Q15858).
Nav1.7, sequence (Q15858 whole entry, looked up): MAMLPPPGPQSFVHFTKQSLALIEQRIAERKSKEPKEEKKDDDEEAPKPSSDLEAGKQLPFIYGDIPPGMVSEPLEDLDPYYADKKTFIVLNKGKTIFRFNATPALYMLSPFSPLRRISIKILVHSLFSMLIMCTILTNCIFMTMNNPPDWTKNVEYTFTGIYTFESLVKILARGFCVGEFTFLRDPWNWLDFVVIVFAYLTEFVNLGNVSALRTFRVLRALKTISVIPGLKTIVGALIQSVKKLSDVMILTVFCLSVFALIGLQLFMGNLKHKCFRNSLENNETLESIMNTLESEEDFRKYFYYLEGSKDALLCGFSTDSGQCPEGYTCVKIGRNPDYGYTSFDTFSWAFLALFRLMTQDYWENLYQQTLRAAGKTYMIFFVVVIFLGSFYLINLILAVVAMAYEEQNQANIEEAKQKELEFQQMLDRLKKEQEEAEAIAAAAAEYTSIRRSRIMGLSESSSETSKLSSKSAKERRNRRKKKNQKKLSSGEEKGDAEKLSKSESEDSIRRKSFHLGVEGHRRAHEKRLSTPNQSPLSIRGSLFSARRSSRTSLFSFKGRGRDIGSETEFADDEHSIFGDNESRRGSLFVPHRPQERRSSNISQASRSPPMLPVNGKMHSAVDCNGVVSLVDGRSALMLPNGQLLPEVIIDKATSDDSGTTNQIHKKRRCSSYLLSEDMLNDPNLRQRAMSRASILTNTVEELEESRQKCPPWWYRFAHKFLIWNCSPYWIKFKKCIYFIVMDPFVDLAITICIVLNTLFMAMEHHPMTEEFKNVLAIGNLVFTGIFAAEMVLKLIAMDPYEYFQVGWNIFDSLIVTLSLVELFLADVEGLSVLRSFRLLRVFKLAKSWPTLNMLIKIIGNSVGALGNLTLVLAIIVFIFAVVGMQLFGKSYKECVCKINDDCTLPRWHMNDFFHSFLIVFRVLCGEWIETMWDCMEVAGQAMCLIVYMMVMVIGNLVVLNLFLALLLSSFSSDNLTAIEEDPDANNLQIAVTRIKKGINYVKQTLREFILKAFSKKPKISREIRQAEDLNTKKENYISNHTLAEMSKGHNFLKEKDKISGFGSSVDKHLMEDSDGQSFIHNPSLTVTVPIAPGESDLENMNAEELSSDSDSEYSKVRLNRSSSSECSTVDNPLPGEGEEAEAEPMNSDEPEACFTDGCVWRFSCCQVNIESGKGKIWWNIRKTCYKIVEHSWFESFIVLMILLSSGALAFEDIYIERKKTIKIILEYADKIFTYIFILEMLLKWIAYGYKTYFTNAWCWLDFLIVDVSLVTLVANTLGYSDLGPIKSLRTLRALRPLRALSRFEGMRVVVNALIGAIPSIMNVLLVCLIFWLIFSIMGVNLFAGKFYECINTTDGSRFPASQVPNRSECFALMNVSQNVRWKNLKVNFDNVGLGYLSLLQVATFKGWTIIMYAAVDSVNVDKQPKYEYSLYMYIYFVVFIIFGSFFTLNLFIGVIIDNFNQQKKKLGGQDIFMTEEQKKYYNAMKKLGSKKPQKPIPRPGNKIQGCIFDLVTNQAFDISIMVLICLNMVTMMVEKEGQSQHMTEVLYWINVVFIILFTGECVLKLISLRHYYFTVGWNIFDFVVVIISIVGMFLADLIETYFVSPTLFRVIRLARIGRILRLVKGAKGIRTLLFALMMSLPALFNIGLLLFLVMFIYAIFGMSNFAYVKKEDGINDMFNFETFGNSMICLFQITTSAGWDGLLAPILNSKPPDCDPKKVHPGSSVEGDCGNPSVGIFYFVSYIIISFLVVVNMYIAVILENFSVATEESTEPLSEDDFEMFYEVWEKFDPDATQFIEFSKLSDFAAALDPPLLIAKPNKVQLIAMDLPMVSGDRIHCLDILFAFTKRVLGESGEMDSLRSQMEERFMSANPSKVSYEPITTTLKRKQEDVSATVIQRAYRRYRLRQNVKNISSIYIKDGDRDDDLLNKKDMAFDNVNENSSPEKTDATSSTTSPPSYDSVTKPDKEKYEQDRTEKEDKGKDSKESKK
Assay [6] deals with TTX-R inward current (calcium currents). Description: Whole cell voltage clamp, block of TTX-R inward current in IMR-32 cells. It is filed as cell-based, human. The following applies: 5 μM.

Where “and” joins values, the source holds several entries; their conditions need not be identical. Equal values may be shown once. Entries after “also recorded” stand apart in the source; their conditions may differ. Read-outs that look alike come from different tables or passages of the source.

Nav1.3, sequence (Q9NY46 whole entry, looked up): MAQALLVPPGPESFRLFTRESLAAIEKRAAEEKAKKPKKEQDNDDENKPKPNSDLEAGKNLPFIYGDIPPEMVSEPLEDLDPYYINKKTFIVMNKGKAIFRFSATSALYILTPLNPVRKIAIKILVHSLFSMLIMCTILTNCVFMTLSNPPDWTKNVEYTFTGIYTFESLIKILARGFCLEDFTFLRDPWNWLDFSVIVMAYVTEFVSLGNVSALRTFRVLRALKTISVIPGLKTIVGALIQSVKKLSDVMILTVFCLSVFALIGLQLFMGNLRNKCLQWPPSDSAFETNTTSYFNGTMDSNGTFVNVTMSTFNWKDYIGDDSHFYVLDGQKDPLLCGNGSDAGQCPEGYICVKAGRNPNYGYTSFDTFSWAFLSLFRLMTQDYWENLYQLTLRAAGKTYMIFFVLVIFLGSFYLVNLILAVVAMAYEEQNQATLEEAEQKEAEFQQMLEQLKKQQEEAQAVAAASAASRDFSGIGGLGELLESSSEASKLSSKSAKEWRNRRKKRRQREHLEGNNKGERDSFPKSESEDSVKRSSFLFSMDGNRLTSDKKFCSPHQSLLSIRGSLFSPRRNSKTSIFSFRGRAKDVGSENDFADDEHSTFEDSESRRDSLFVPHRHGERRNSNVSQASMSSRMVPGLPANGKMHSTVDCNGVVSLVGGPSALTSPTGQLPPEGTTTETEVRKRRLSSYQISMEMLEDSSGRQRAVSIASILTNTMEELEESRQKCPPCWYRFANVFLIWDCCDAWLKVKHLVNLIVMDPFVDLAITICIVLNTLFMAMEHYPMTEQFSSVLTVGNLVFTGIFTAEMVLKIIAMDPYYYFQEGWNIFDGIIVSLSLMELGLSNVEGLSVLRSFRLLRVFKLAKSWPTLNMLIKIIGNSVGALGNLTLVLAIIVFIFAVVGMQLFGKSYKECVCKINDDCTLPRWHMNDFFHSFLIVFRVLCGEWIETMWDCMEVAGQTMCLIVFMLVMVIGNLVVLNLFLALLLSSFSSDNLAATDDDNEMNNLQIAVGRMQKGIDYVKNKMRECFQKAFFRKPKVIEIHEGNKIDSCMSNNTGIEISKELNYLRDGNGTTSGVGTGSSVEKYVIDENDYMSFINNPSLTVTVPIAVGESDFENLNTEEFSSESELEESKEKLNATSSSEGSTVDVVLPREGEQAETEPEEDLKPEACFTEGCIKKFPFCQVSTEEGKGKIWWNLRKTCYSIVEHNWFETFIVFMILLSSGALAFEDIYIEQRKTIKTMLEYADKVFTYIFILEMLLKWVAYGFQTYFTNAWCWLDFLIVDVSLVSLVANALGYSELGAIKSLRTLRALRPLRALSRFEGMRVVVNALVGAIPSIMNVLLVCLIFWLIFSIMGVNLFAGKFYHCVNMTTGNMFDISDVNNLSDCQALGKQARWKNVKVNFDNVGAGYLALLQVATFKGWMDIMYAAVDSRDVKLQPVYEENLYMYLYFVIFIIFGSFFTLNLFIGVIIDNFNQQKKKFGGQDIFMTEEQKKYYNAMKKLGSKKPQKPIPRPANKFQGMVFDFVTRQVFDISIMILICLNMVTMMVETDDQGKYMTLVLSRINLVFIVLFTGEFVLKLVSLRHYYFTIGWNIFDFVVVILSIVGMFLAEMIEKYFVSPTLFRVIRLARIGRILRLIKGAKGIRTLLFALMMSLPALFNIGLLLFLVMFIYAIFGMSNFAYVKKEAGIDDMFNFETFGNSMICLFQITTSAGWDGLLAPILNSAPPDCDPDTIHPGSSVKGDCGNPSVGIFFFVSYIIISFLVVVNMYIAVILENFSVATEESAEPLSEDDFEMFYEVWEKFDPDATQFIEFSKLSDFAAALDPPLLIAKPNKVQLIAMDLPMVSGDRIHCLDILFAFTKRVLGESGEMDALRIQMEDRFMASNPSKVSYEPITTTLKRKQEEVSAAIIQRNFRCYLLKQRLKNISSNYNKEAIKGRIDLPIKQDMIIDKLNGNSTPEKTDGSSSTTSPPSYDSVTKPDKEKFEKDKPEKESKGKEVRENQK

Take `NC1=N[C@H](O)[C@H]2[C@H]3O[C@]4(O)O[C@@H]([C@@H](O)[C@@]2(N1)[C@@H]4O)[C@]3(O)CO` [TTX, tetrodotoxin]: in assay [1], the “block of veratridine-induced depolarization / fluorescence signal” value was “completely suppressed; also recorded: completely blocked; also recorded: nearly completely blocks”; the “proportion of the veratridine-induced response blocked” value was 90% and 88% and 89%; the “steepness of the dose response relationship” value was 0.76 and 0.89 and 0.79. Also, in assay [1] (read-out: IC50, block of veratridine-stimulated sodium influx), the IC50 stood at 3.3 nM. The IC50 in assay [1] (read-out: concentration to half block the veratridine-induced increase in fluorescence (IC50)) stood at 2.8 nM. Also, in assay [2], the “TTX-S component of inward currents, proportion of total current” value is listed as 36+/−7%; the “block of inward currents” value was found to be 92%; the “effect on inward currents” value is reported as “little effect”. In addition, in assay [3], the “TTX-S component of inward currents, proportion of total current” value was 17+/−6% and the “block of inward currents” value was “only partially blocked”. Further, the “effect on FRET signal” value in assay [4] was “dose dependent decreases”. In assay [5], the “block of veratridine induced signal” value was “nearly completely blocks”; the “proportion of the veratridine-induced response blocked” value is 82% and 80%; the “steepness of the dose response relationship” value is 1.0 and 1.5.

As to `CC1=C(/C=C/C(C)=C\C=C\C(C)=C\C(=O)O)C(C)(C)CCC1` [RA, 9-cis RA], in assay [2] (cells grown for more than two weeks in RA, tested in Tyrodes, n=24, vs -43.3 without RA, p<0.02), the peak inward currents was −75.3+/−10.6 pA/pF.

Take `COCC(=O)O[C@]1(CCN(C)CCCc2nc3ccccc3[nH]2)CCc2cc(F)ccc2[C@@H]1C(C)C` [mibefradil]: the “block of the TTX-R current” value in assay [6] was “in part”.

Values taken from patent US7195879B2, “Method for identifying modulators of NAv ion channels” (priority 2002, dated 2007).
